# Peptide text beside a SMILES is read from it.
# Key:
# IFN-α2 = IFN-α2 expression in human fetal astrocytes (real-time RT-PCR); format: cell-based; details: for IFN-α2 expression in ZIKV-infected fetal astrocytes: ZIKV MOI 0.5, AMPs 0.4 to 10 µM, 48 h; for IFN-α2 expression in ZIKV-infected fetal astrocytes / IFN-α2 expression in uninfected fetal astrocytes: normalized to 18-s rRNA, N = 3; for IFN-α2 expression in uninfected fetal astrocytes: AMP treatment 48 h
# Method: (§1) Total mRNA was isolated with TRIzol Reagent (Thermo Fisher Scientific) and RNeasy Mini Kit (QIAGEN Inc., Valencia, CA, USA) following the manufacturer’s recommendations. Two real-time RT-PCR methods were used for the current studies. First, SYBR Green-based RT-PCR assay was used to determine intracellular ZIKV RNA in Vero cells. For this assay, reverse transcription was performed using Verso cDNA synthesis Kit (Thermo Fisher Scientific) and 1 µg of total RNA in a 15-µL final volume. The RT-PCR analyses were performed using 7.5-µL SYBR Green PCR Master Mix (Thermo Fisher Scientific) with 0.5-µL cDNA, 1.5-µL H2O, 5.5-µL oligonucleotide primer pairs at 10 µM. […] GG-3. PCR program: 1, 50°C for 2 min; 2, 95°C for 2 min; 3, 95°C for 15 s; 4, specific annealing temperature for 15 s; 5, 72°C for 1 min. Steps 2–4 were repeated 40 times. All samples were amplified in triplicate for analysis. Relative ZIKV RNA levels were determined and standardized with a GAPDH internal control using comparative ΔΔCT method ([35]). Second, TaqMan-based RT-PCR assay was used to determine intracellular ZIKV RNA and other gene expressions in Figures 3–6 and extracellular ZIKV RNA in Figure 3. The TaqMan assay was performed in a StepOne^TM Real-Time PCR system (Thermo Fisher Scientific). Primers used for TaqMan real-time RT-PCR were all from the Thermo Fisher Scientific, which included ZIKV (forward sequence: 5-[…]-3, reverse sequence: 5- […]-3, and probe sequence: 5′-[…]-3), IFN-α2 (Hs00265051_s1), IFN-β1 (Hs01077958_s1), eukaryotic 18-s rRNA (Hs99999901_s1), β-actin (Hs99999903_m1), and GAPDH (Catalog number: 4310884E). Relative ZIKV mRNA levels were determined and standardized with a GAPDH or 18-s rRNA endogenous control using comparative ΔΔCT method ([35]). […] For ZIKV in supernatants, RNA was extracted from the supernatants through TRIzol™ LS Reagent (Thermo Fisher Scientific, 10296028) following the manufacturer’s manual. […] Quantitative genomic RNA from ZIKV (NR-1838DQ, ATCC) was used as a standard to calculate viral copies.
# in vitro = details: African green monkey
# Method: (§2) Cell viability was examined by the CellTiter 96 ®Aqueous One Solution Cell Proliferation Assay (Promega, Madison, WI, USA). Vero cells and astrocytes were seeded into 96-well tissue culture plates (Fisher Scientific) and treated with fresh growth medium containing different concentrations of each peptide for 2 or 4 days at 37°C. At the experimental end point, MTS [3-(4,5-dimethylthiazol-2-yl)-5-(3-carboxymethoxyphenyl)-2-(4-sulfophenyl)-2H-tetrazolium] was added to the cultures and incubated for 1 h. The absorbance at 490 nm was recorded through BioTek Gen5 data analysis software (Winooski), VT, optical density (OD) values were used as a representation of cell viability.
# (§3) (A) Vero cells were treated with doses of peptides ranging from 1 to 50 µM. After 24 h, the cultures were washed and treated with same doses of peptides in fresh medium for another 24 h. Cell viability was determined by a colorimetric MTS assay. Results shown are the averages ±SD of experiments performed in triplicate. Data were analyzed by non-linear regression. The EC50 was assessed for each of the antimicrobial peptides. (B) Vero cells were treated with doses of peptides ranging from 0.4 to 10 µM for 2 h then infected with ZIKV at the MOI of 0.5. After 24 h, the cultures were washed and treated with same doses of peptides in fresh medium for another 24 h. ZIKA RNA was detected in total cellular RNA through real-time RT-PCR. Data were normalized to GAPDH and presented as fold change (in log scale) compared with ZIKV group. ** p < 0.01 and *** p < 0.001, as compared with the ZIKV group without the peptide treatment (ANOVA, N = 3).
# (§4) A, B) Vero cells were treated with 10 µM AMPs for 2 days or 4 days as outlined in the figure. For 4-day treatment, Vero cells were repeatedly treated with 10 µM AMPs at 2-day post-treatment. At the experimental end point, cell viability was determined by a colorimetric MTS assay CellTiter 96® AQueous One Solution Assay (Promega, Madison, WI) based on the manufacture’s instruction. Results were normalized as percentage of cell viability in control astrocytes. CTL, control. * denotes p < 0.05, ** denotes p < 0.01, *** denotes p < 0.001 as compared to the control group without peptide treatment (ANOVA, N = 3).
# Vero cells = experiment: in vitro
# Method: as §2, §3, §4
# ZIKV strain MR766 = experiment: ZIKV RNA in infected Vero cells, peptide pre-treatment (real-time RT-PCR); format: cell-based, Zika virus; details: for ZIKV RNA compared with untreated controls: peptide 2 µM, 2 h before ZIKV MOI 0.5, re-treated at 24 h, 48-h post-infection, RT-PCR normalized to GAPDH, N = 3
# Method: Human fetal astrocytes were derived from a single-cell isolation process of fetal brain tissues as previously described ([25], [26]). Briefly, dissociated brain tissue was incubated with 0.25% trypsin for 30 min, followed by neutralization with 10% fetal bovine serum (FBS), and further dissociated by trituration. The single-cell suspension was cultured as adherent cells in DMEM/F12 (Thermo Fisher Scientific, Waltham, MA, USA), supplemented with 10% FBS, penicillin (50 units/mL), and streptomycin (50 µg/mL) (Thermo Fisher Scientific). […] Vero cells (ATCC, CCL-81), an African green monkey kidney cell line, were maintained in Dulbecco’s Modified Eagle Medium (DMEM) with 5% FBS. Experiments with ZIKV were performed exclusively inside a BioSafety Level 2 (laboratory). All procedures utilized in this study were approved by the Institutional Biosafety Committee (IBC 16-05-013BL2) and followed biosafety level II practices as shown in National Institutes of health (NIH) Guideline Appendix G-II-B. ZIKV strain MR766 (Uganda, 1947) was obtained from ZeptoMetrix Corp., Buffalo, NY, USA, and propagated in Vero cells. ZIKV infection of the Vero cells and fetal astrocytes was previously characterized ([27]) and all infections in the current studies were at the MOI of 0.5.
# as §1
# [1] = uninfected human fetal astrocytes
SMILES,IFN-α2 expression in ZIKV-infected fetal astrocytes (IFN-α2),"Increase of IFN-α2 expression in uninfected fetal astrocytes (IFN-α2; uninfected human fetal astrocytes, difference not statistically significant)",EC50 at 48 h (in vitro),Cytotoxicity to Vero cells at 10 µM (Vero cells),ZIKV RNA compared with untreated controls (ZIKV strain MR766),IFN-α2 expression in uninfected fetal astrocytes (IFN-α2; [1]),"Dose dependence of ZIKV RNA decrease (ZIKV strain MR766; peptide 0.4, 2 and 10 µM, ZIKV MOI 0.5, 48-h post-infection)"
CC[C@H](C)[C@H](NC(=O)[C@H](CCCCN)NC(=O)[C@H](CCCCN)NC(=O)[C@H](Cc1ccccc1)NC(=O)[C@H](CC(C)C)NC(=O)[C@H](CCCCN)NC(=O)[C@H](CCCCN)NC(=O)[C@H](Cc1ccccc1)NC(=O)[C@H](CCCCN)NC(=O)[C@H](CCCCN)NC(=O)[C@H](CCCNC(=N)N)NC(=O)[C@H](Cc1ccccc1)NC(=O)[C@H](CCCNC(=N)N)NC(=O)[C@H](CCCCN)NC(=O)[C@H](Cc1ccccc1)NC(=O)[C@H](CCCNC(=N)N)NC(=O)CN)C(=O)N[C@@H](CO)C(=O)O [BMAP-18] (H-GRFKRFRKKFKKLFKKIS-OH; N-terminus and C-terminus assumed),significantly increased IFN-α2 expression levels in a dose-dependent manner,7 folds,> 50 µM,minimal cytotoxicity,significantly decreased ZIKV RNA,,
CC[C@H](C)[C@H](NC(=O)[C@H](CCCNC(=N)N)NC(=O)[C@H](CCC(N)=O)NC(=O)[C@@H](NC(=O)[C@@H](NC(=O)[C@H](CCCNC(=N)N)NC(=O)[C@H](CCCCN)NC(=O)[C@H](Cc1ccccc1)NC(=O)CN)[C@@H](C)CC)C(C)C)C(=O)N[C@@H](CCCCN)C(=O)N[C@@H](CC(=O)O)C(=O)N[C@@H](Cc1ccccc1)C(=O)N[C@@H](CC(C)C)C(=O)N[C@@H](CCCNC(=N)N)C(=O)N[C@@H](CC(N)=O)C(=O)N[C@@H](CC(C)C)C(=O)N[C@H](C(N)=O)C(C)C [GF-17] (H-GFKRIVQRIKDFLRNLV-NH2; N-terminus and C-terminus assumed),significantly increased IFN-α2 expression levels in a dose-dependent manner,,> 50 µM,minimal cytotoxicity,significantly decreased ZIKV RNA,significantly increased IFN-α2 expression,
"CC[C@H](C)[C@H](NC(=O)[C@H](CCCNC(=N)N)NC(=O)[C@H](CCC(N)=O)NC(=O)[C@@H](NC(=O)[C@@H](NC(=O)[C@@H](N)CCCNC(=N)N)[C@@H](C)CC)C(C)C)C(=O)N[C@@H](CCCCN)C(=O)N[C@@H](CC(=O)O)C(=O)N[C@@H](Cc1ccccc1)C(=O)N[C@@H](CC(C)C)C(=O)O [RI-10, reference compound] (H-RIVQRIKDFL-OH; N-terminus and C-terminus assumed)","but not RI-10, significantly increased IFN-α2 expression levels",,> 50 µM,minimal cytotoxicity,,did not affect the expression levels of IFN-α2,except RI-10 showed dose-dependent decrease of ZIKV RNA

# Reference: publication PMC5906549, “Cathelicidin-Derived Antimicrobial Peptides Inhibit Zika Virus Through Direct Inactivation and Interferon Pathway” (Frontiers in Immunology, 2018)
